Results from ChEMBL document CHEMBL1201862, “PubChem BioAssay data set” (2004).
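Exposure lasted 48 hours, with cells grown in 96-well plates and compounds tested at five concentrations. Abbreviation: GI50, concentration required for 50% inhibition of growth.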 Activity calls are given as the source filed them. Rule as the data show it: active = GI50 up to about 1.1 µM and inactive = higher. Where a SMILES comes first, the peptide text is derived from it. The star is where a group is joined. Boc = CC(C)(C)OC(=O)*; tBu = CC(C)(C)*

Legend:
Experiment in all cases: DTP human tumour cell line panel, 48 h
[1] = tested on: HCC 2998
[2] = tested on: HCT-15
[3] = tested on: HT-29
[4] = tested on: Hs-578T
[5] = tested on: KM12
[6] = tested on: LOX IMVI
[7] = tested on: MCF7
[8] = tested on: MDA-MB-231
[9] = tested on: Malme-3M
[10] = tested on: NCI-H226
[11] = tested on: OVCAR-5
[12] = tested on: RPMI-8226
[13] = tested on: RXF 393
[14] = tested on: SF-295
[15] = tested on: SK-MEL-2
[16] = tested on: SNB-19
[17] = tested on: SNB-75
[18] = tested on: TK-10
[19] = tested on: UACC-257
[20] = tested on: UO-31

Row | SMILES | GI50 [1] | GI50 [2] [µM] | GI50 [3] | GI50 [4] | GI50 [5] | GI50 [6] | GI50 [7] | GI50 [8] | GI50 [9] | GI50 [10] | GI50 [11] | GI50 [12] | GI50 [13] | GI50 [14] | GI50 [15] | GI50 [16] | GI50 [17] | GI50 [18] | GI50 [19] | GI50 [20]
1 | Cc1ccc(-c2n[nH]c(=O)n2/N=C\c2ccc([N+](=O)[O-])cc2)cc1 | > 100 µM (inactive) | 86.7 | > 65.6 µM (inactive) | 41.1 µM (inactive) | > 100 µM (inactive) | > 100 µM (inactive) | 99.5 µM (inactive) | 9.75 µM (inactive) | > 100 µM (inactive) | > 100 µM (inactive) | > 100 µM (inactive) | 76.9 µM (inactive) | > 73.8 µM (inactive) | > 100 µM (inactive) | > 100 µM (inactive) | > 100 µM (inactive) | 97.5 µM (inactive) | > 100 µM (inactive) | > 100 µM (inactive) | > 93.3 µM (inactive)
2 | CO/N=[N+](\[O-])NC(C)C | > 100 µM (inactive) | > 100 | > 100 µM (inactive) | > 100 µM (inactive) | > 100 µM (inactive) | > 100 µM (inactive) | > 100 µM (inactive) | > 100 µM (inactive) | > 100 µM (inactive) | > 100 µM (inactive) | > 100 µM (inactive) | > 100 µM (inactive) | > 100 µM (inactive) | > 100 µM (inactive) | > 100 µM (inactive) | > 100 µM (inactive) | > 100 µM (inactive) | > 100 µM (inactive) | > 100 µM (inactive) | 5.42 µM (inactive)
3 | N#C/C(=C1\N=C(c2ccccc2O)Oc2ccccc21)c1ccc([N+](=O)[O-])cc1 | > 100 µM (inactive) | > 100 | > 100 µM (inactive) | 62.2 µM (inactive) | > 100 µM (inactive) | > 100 µM (inactive) | > 100 µM (inactive) | > 100 µM (inactive) | > 100 µM (inactive) | > 100 µM (inactive) | > 100 µM (inactive) | > 100 µM (inactive) | > 100 µM (inactive) | 72.3 µM (inactive) | > 100 µM (inactive) | > 100 µM (inactive) | 70.6 µM (inactive) | > 100 µM (inactive) | > 100 µM (inactive) | > 100 µM (inactive)
4 | CC(=O)O[C@H]1C[C@@H](O[C@H]2[C@@H](O)C[C@H](O[C@H]3[C@@H](O)C[C@H](O[C@H]4CC[C@@]5(C)[C@H](CC[C@@H]6[C@@H]5C[C@@H](O)[C@]5(C)[C@@H](C7=CC(=O)OC7)CC[C@]65O)C4)O[C@@H]3C)O[C@@H]2C)O[C@H](C)[C@H]1O.CC(=O)O[C@H]1[C@@H](O)C[C@@H](O[C@H]2[C@@H](O)C[C@H](O[C@H]3[C@@H](O)C[C@H](O[C@H]4CC[C@@]5(C)[C@H](CC[C@@H]6[C@@H]5C[C@@H](O)[C@]5(C)[C@@H](C7=CC(=O)OC7)CC[C@]65O)C4)O[C@@H]3C)O[C@@H]2C)O[C@@H]1C | 0.104 µM (active) | 0.0308 | 0.0278 µM (active) | 0.0251 µM (active) | 0.0324 µM (active) | 0.0313 µM (active) | 0.0415 µM (active) | 0.162 µM (active) | 0.0236 µM (active) | 0.0508 µM (active) | 0.033 µM (active) | 0.0395 µM (active) | 0.0279 µM (active) | 0.0299 µM (active) | 0.0679 µM (active) | 0.0637 µM (active) | 0.0483 µM (active) | 0.0299 µM (active) | 0.0541 µM (active) | 0.0486 µM (active)
5 | CC(OC(C)(C)C)C(NC(=O)C(N)CCCCNC(=O)OC(C)(C)C)C(=O)NC(Cc1ccccc1)C(=O)O (centres undefined) (H-Lys(Boc)-Thr(tBu)-Phe-OH; configuration not given here) | > 100 µM (inactive) | > 100 | > 100 µM (inactive) | > 100 µM (inactive) | > 100 µM (inactive) | > 100 µM (inactive) | > 100 µM (inactive) | > 100 µM (inactive) | > 100 µM (inactive) | > 100 µM (inactive) | > 100 µM (inactive) | > 100 µM (inactive) | > 100 µM (inactive) | > 100 µM (inactive) | > 100 µM (inactive) | > 100 µM (inactive) | > 100 µM (inactive) | > 100 µM (inactive) | > 100 µM (inactive) | > 100 µM (inactive)
6 | O=C(O)c1cc(=O)c2c(OCC(O)COc3cccc4oc(C(=O)O)cc(=O)c34)cccc2o1 | > 100 µM (inactive) | > 100 | > 75.7 µM (inactive) | > 72.4 µM (inactive) | > 85.9 µM (inactive) | > 61.4 µM (inactive) | > 85.1 µM (inactive) | > 81.1 µM (inactive) | > 75.3 µM (inactive) | > 100 µM (inactive) | > 84.3 µM (inactive) | > 70.1 µM (inactive) | > 100 µM (inactive) | > 95.5 µM (inactive) | > 56.4 µM (inactive) | > 100 µM (inactive) | > 61 µM (inactive) | > 100 µM (inactive) | > 80.4 µM (inactive) | > 100 µM (inactive)
7 | CN1CCN(CCCCN2c3ccccc3Sc3ccc(C(=O)c4ccccc4)cc32)CC1 | 1.56 µM (inactive) | 1.67 | 1.29 µM (inactive) | 1.58 µM (inactive) | 1.49 µM (inactive) | 1.46 µM (inactive) | 1.91 µM (inactive) | 1.9 µM (inactive) | 2.34 µM (inactive) | 1.8 µM (inactive) | 2.84 µM (inactive) | 1.79 µM (inactive) | 0.923 µM (active) | 1.8 µM (inactive) | 1.77 µM (inactive) | 1.91 µM (inactive) | 1.26 µM (inactive) | 1.67 µM (inactive) | 1.75 µM (inactive) | 2.65 µM (inactive)
8 | COc1ccc(/C=N/Nc2nc(=S)[nH]c3[nH]ncc23)cc1 | 35 µM (inactive) | > 100 | 48.5 µM (inactive) | > 100 µM (inactive) | 49.9 µM (inactive) | 33.8 µM (inactive) | 43.5 µM (inactive) | 34.6 µM (inactive) | 38.2 µM (inactive) | > 100 µM (inactive) | 45.5 µM (inactive) | 2.5 µM (inactive) | > 100 µM (inactive) | 40.6 µM (inactive) | 45.7 µM (inactive) | 22.2 µM (inactive) | > 100 µM (inactive) | 33.1 µM (inactive) | 55.6 µM (inactive) | > 100 µM (inactive)
9 | O=C1/C(=C\c2ccc(-c3ccc(Cl)cc3Cl)o2)SC2NC(COc3ccc(Cl)cc3)=NN12 (centres undefined) | 41.1 µM (inactive) | 34.9 | 79.4 µM (inactive) | 25.5 µM (inactive) | 55.5 µM (inactive) | 52.1 µM (inactive) | 33.4 µM (inactive) | 44 µM (inactive) | 42.2 µM (inactive) | 20.2 µM (inactive) | > 100 µM (inactive) | 38.4 µM (inactive) | 27.5 µM (inactive) | 45.3 µM (inactive) | 50.5 µM (inactive) | 53.7 µM (inactive) | > 100 µM (inactive) | 2.96 µM (inactive) | 21.1 µM (inactive) | > 100 µM (inactive)
10 | CNN1C(=O)c2c(C)c(C)c(C#N)c(N)c2C1=O | > 100 µM (inactive) | > 100 |  | > 100 µM (inactive) | > 100 µM (inactive) | > 100 µM (inactive) | > 100 µM (inactive) | > 100 µM (inactive) | > 100 µM (inactive) | > 100 µM (inactive) | > 100 µM (inactive) | > 100 µM (inactive) | 40.8 µM (inactive) | > 100 µM (inactive) | > 100 µM (inactive) | > 100 µM (inactive) | 83.2 µM (inactive) | > 100 µM (inactive) | > 100 µM (inactive) | > 100 µM (inactive)
11 | CCOc1ccc(Nc2nc(N)nc(N)c2N=O)cc1 | 55.2 µM (inactive) | 37.7 | 30.4 µM (inactive) | 50.9 µM (inactive) | > 100 µM (inactive) | 32.1 µM (inactive) | 38.4 µM (inactive) | 40 µM (inactive) | 49 µM (inactive) | 39.6 µM (inactive) | > 100 µM (inactive) | 47.4 µM (inactive) | 43.9 µM (inactive) | > 100 µM (inactive) | 65.2 µM (inactive) | 61 µM (inactive) | 28.1 µM (inactive) | 34.3 µM (inactive) | 54 µM (inactive) | 29.9 µM (inactive)
12 | COc1ccc(/C=C/C(=O)c2cc(OC)cc(OC)c2)cc1 | 4.44 µM (inactive) | 0.543 | 1.91 µM (inactive) | 5.75 µM (inactive) | 0.265 µM (active) | 1.35 µM (inactive) | 0.219 µM (active) | 6.79 µM (inactive) | 13.6 µM (inactive) | 10.2 µM (inactive) | 5.6 µM (inactive) | 0.646 µM (active) | 3.33 µM (inactive) | 1.24 µM (inactive) | 18.7 µM (inactive) | 1.69 µM (inactive) | 2.64 µM (inactive) | 11.5 µM (inactive) | 13.6 µM (inactive) | 3.27 µM (inactive)
13 | CCOC(=O)C(NC(=O)c1ccccc1)(Nc1ccc(S(=O)(=O)Nc2ncccn2)cc1)C(F)(F)F (centres undefined) | > 100 µM (inactive) | > 100 | > 100 µM (inactive) | > 100 µM (inactive) | > 100 µM (inactive) | > 100 µM (inactive) | > 100 µM (inactive) | > 100 µM (inactive) | > 100 µM (inactive) | > 100 µM (inactive) | > 100 µM (inactive) | > 100 µM (inactive) | > 100 µM (inactive) | > 100 µM (inactive) | > 100 µM (inactive) | > 100 µM (inactive) | > 100 µM (inactive) | > 100 µM (inactive) | > 100 µM (inactive) | > 100 µM (inactive)
